Measurements as given in patent US20040044006A1, “Methods of use of quinolone compounds against pneumococcal and haemophilus bacteria” (priority 1999, published 2004).
Converted amounts (≈) assume the structure as drawn. Where two headings read alike, the source gives them in different places.

Legend:
[1] = tested on: quinolone susceptible pneumococci (ciprofloxacin MICs ≦4.0 μg/ml); experiment: Agar dilution MICs of 207 quinolone susceptible pneumococcal strains; format: cell-based, Streptococcus pneumoniae; conditions: agar dilution; for MIC: read-out: MIC range
Method: All susceptible, and some intermediate and resistant strains, were recent U.S. isolates. The remainder of intermediate and resistant strains were isolated in South Africa, Spain, France, Central and Eastern Europe, and Korea. […] Additionally these strains were tested for mutations in parC, gyrA, parE, and gyrB (Pan, et al., Antimicrob. Agents Chemother. 40:2321-2326, 1996) and for efflux mechanism (Brenwald, et al., Antimicrob. Agents Chemother. 42:2032-2035, 1998). For time-kill studies, 4 penicillin susceptible, 4 intermediate and 4 resistant strains (2 quinolone resistant) were tested, while for PAE studies 5 quinolone susceptible and 1 resistant strains were studied.
(§1) Agar dilution methodology was performed on 234 strains as described previously (M. R. Jacobs, Clin. Infect. Dis. 15:119-127, 1992; Jacobs, et al., Rev. Med. Microbiol. 6:77-93, 1995), using Mueller-Hinton agar (BBL Microbiology Systems, Cockeysville, Md.) supplemented with 5% sheep blood. Broth MICs for 12 strains tested by time-kill and 6 tested by PAE were performed according to NCCLS recommendations (Methods for Dilution Antimicrobial Susceptibility Tests for Bacteria that Grow Aerobically, 3rd Edition, NCCLS, Villanova, Pa.) using cation-adjusted Mueller-Hinton broth with 5% lysed defibrinated horse blood. Standard quality control strains, including Streptococcus pneumoniae ATCC 49619, were included in each run of agar and broth dilution MICs.

[2] = tested on: pneumococcal strains; experiment: Microbroth dilution MICs of strains tested by time-kill and PAE; format: cell-based; conditions: Streptococcus pneumoniae, read-out: Microdilution MIC
Method: as §1

[3] = tested on: pneumococci (5 quinolone susceptible and 1 resistant strains); experiment: Post-antibiotic effect (PAE) testing; format: cell-based, Streptococcus pneumoniae
Method: The post-antibiotic effect (PAE) (Craig, et al., V. Lorian (ed.) Antibiotics in Laboratory Medicine, Williams and Wilkins, Baltimore, pages 296-399, 1996) was determined by the viable plate count method, using Mueller-Hinton broth (MHB) supplemented with 5% lysed horse blood when testing pneumococci. […] Additionally, the one quinolone resistant strain was exposed at quinolone concentrations 5×MIC. Tubes containing 5 ml broth with antibiotic were inoculated with approximately 5×10^6 cfu/ml. Growth controls with inoculum but no antibiotic were included with each experiment. Tubes were placed in a shaking water bath at 35° C. for 1 h. At the end of the exposure period, cultures were diluted 1:1000 to remove antibiotic.
Viability counts were determined before exposure and immediately after dilution (0 h), and then every 2 h until tube turbidity reached a #1 McFarland standard. Inocula were prepared by suspending growth from an overnight blood agar plate in broth. The broth was incubated at 35° C. for 2-4 h in a shaking water bath until turbidity matched a #1 McFarland standard, and checked for viability by plate counts (Spangler, et al., Antimicrob. Agents Chemother. 41:2173-9176, 1997; Spangler, et al., Antimicrob. Agents Chemother. 42:1253-1255, 1998).
The PAE was defined as PAE=T-C; T=time required for viability counts of an antibiotic-exposed culture to increase by 1 log10 above counts immediately after dilution; C=corresponding time for growth control. For each experiment, viability counts (log10 cfu/ml) were plotted against time, and results expressed as the mean of two separate assays±S D (Craig, et al., V. Lorian (ed), Antibiotics in Laboratory Medicine, Williams and Wilkins, Baltimore, pages 296-329, 1996).

[4] = tested on: quinolone resistant pneumococci; experiment: Determination of efflux mechanism: MICs in the presence and absence of reserpine; format: cell-based, Streptococcus pneumoniae
Method: MICs were determined in the presence and absence of 10 μg/ml of reserpine (Sigma Chemicals, St. Louis, Mo.) as known in the art.
MICs were determined in the presence and absence of […] of reserpine (Sigma Chemicals, St. Louis, Mo., USA) as described previously (Brenwald, et al., Antimicrob. Agents Chemother. 42:2039-2035, 1998 and Davies, et al., Antimicrob. Agents Chemother. 43:1177-1182S, 1999).

[5] = tested on: quinolone-resistant Haemophilus influenzae strains; experiment: Microdilution MIC determination in HTM for quinolone-resistant Haemophilus influenzae strains; format: cell-based; conditions: 9 quinolone-resistant Haemophilus influenzae strains
Method: Inocula were prepared from chocolate agar plates incubated for a full 24 hours by the direct colony suspension method as follows: In a tube of Mueller-Hinton broth (Difco), an organism suspension was made to a density of a 0.5 McFarland standard (1×10^8 CFU/ml). The latter inoculum was diluted in sterile saline such that final organisms suspensions in trays yielded colony counts of 3-8×10^5 CFU/ml. Frozen microdilution trays were obtained from MicroMedia Systems, Inc. (Cleveland, Ohio, USA). Each tray contained all antimicrobials prepared in freshly made HTM. Wells were inoculated with 100 μl suspensions and incubated in ambient air at 35° C. for 20-24 hours. The lowest drug concentration showing no growth was read as the MIC. Standard quality control strains, including H. influenzae ATCC 49766, H. influenzae ATCC 49247, Staphylococcus aureus ATCC 29213 and Escherichia coli ATCC 25922 were included with each run.

[6] = Streptococcus pneumoniae, Penicillin I strains
[7] = Streptococcus pneumoniae, Penicillin I strains, read-out: MIC90
[8] = Streptococcus pneumoniae, Penicillin R strains
[9] = Streptococcus pneumoniae, Penicillin R strains, read-out: MIC90
[10] = Streptococcus pneumoniae, Penicillin S strains
[11] = Streptococcus pneumoniae, Penicillin S strains, read-out: MIC90
[12] = strain 1 (S) penicillin susceptible
[13] = strain 2 (S) penicillin susceptible
[14] = strain 3 (S) penicillin susceptible, quinolone-resistant
[15] = strain 4 (S) penicillin susceptible, quinolone-resistant
[16] = strain 5 (I) penicillin intermediate
[17] = strain 6 (I) penicillin intermediate
[18] = strain 7 (I) penicillin intermediate
[19] = strain 8 (I) penicillin intermediate
[20] = strain 9 (R) penicillin resistant
[21] = strain 11 (R) penicillin resistant
[22] = strain 12 (R) penicillin resistant

CC[C@H]1OC(=O)[C@H](C)[C@@H](O[C@H]2C[C@@](C)(OC)[C@@H](O)[C@H](C)O2)[C@H](C)[C@@H](O[C@@H]2O[C@H](C)C[C@H](N(C)C)[C@H]2O)[C@](C)(OC)C[C@@H](C)C(=O)[C@H](C)[C@@H](O)[C@]1(C)O [Clarithromycin, clarithromycin]
MIC50 [1, 6]: 0.03 µg/mL (≈ 0.0401 µM)
MIC90 [1, 7]: 32 µg/mL (≈ 42.8 µM)
MIC50 [1, 8]: 2 µg/mL (≈ 2.67 µM)
MIC90 [1, 9]: > 128 µg/mL
MIC50 [1, 10]: 0.03 µg/mL (≈ 0.0401 µM)
MIC90 [1, 11]: 0.06 µg/mL (≈ 0.0802 µM)
MIC90 ([1]; Penicillin R strains): >128.0 µg/mL
MIC [2, 12]: 0.008 µg/mL (≈ 0.0107 µM)
MIC [2, 13]: 0.03 µg/mL (≈ 0.0401 µM)
MIC [2, 14]: > 64 µg/mL
MIC [2, 15]: 0.03 µg/mL (≈ 0.0401 µM)
MIC [2, 16]: 32 µg/mL (≈ 42.8 µM)
MIC [2, 17]: 0.008 µg/mL (≈ 0.0107 µM)
MIC [2, 18]: 0.016 µg/mL (≈ 0.0214 µM)
MIC [2, 19]: 0.03 µg/mL (≈ 0.0401 µM)
MIC [2, 20]: > 64 µg/mL
MIC ([2]; strain 10 (I)): > 64 µg/mL
MIC [2, 21]: 0.03 µg/mL (≈ 0.0401 µM)
MIC [2, 22]: > 64 µg/mL
PAE for non-quinolone compounds ([3]; 10×MIC, range over strains): 1.8 to 4.5 h

C[C@H]1COc2c(N3CCN(C)CC3)c(F)cc3c(=O)c(C(=O)O)cn1c23 [Levofloxacin, levofloxacin]
MIC50 [1, 6]: 1 µg/mL (≈ 2.77 µM)
MIC90 [1, 7]: 2 µg/mL (≈ 5.53 µM)
MIC [1, 6]: 0.5 to 4 µg/mL (≈ 1.38 to 11.1 µM)
MIC50 [1, 8]: 1 µg/mL (≈ 2.77 µM)
MIC90 [1, 9]: 2 µg/mL (≈ 5.53 µM)
MIC [1, 8]: 1 to 2 µg/mL (≈ 2.77 to 5.53 µM)
MIC50 [1, 10]: 1 µg/mL (≈ 2.77 µM)
MIC90 [1, 11]: 2 µg/mL (≈ 5.53 µM)
MIC [1, 10]: 0.125 to 4 µg/mL (≈ 0.346 to 11.1 µM)
MIC50 ([1]; Streptococcus pneumoniae, all 207 strains (64 penicillin susceptible, 68 intermediate, 75 resistant)): 1 µg/mL (≈ 2.77 µM)
MIC90 ([1]; Streptococcus pneumoniae, all 207 strains (64 penicillin susceptible, 68 intermediate, 75 resistant), read-out: MIC90): 2 µg/mL (≈ 5.53 µM)
number of strains with lower MICs in the presence of reserpine ([4]; of 28 quinolone resistant strains, 10 μg/ml reserpine): 7 strains
Number of dilutions decrease after incubation with reserpine ([4]; strain 7): 2X
Number of dilutions decrease after incubation with reserpine ([4]; strain 11): 4X
Number of dilutions decrease after incubation with reserpine ([4]; strain 12): 2X
Number of dilutions decrease after incubation with reserpine ([4]; strain 23): 2X
Number of dilutions decrease after incubation with reserpine ([4]; strain 25): 2x X
Number of dilutions decrease after incubation with reserpine ([4]; strain 26): 2x X
Number of dilutions decrease after incubation with reserpine ([4]; strain 28): 4x X
MIC [2, 12]: 2 µg/mL (≈ 5.53 µM)
MIC [2, 13]: 1 µg/mL (≈ 2.77 µM)
MIC [2, 14]: 32 µg/mL (≈ 88.6 µM)
MIC [2, 15]: 32 µg/mL (≈ 88.6 µM)
MIC [2, 16]: 1 µg/mL (≈ 2.77 µM)
MIC [2, 17]: 2 µg/mL (≈ 5.53 µM)
MIC [2, 18]: 1 µg/mL (≈ 2.77 µM)
MIC [2, 19]: 1 µg/mL (≈ 2.77 µM)
MIC [2, 20]: 2 µg/mL (≈ 5.53 µM)
MIC ([2]; strain 10 (I)): 2 µg/mL (≈ 5.53 µM)
MIC [2, 21]: 1 µg/mL (≈ 2.77 µM)
MIC [2, 22]: 2 µg/mL (≈ 5.53 µM)
PAE ([3]; 5×MIC, quinolone resistant strain): 1.3 h
PAE ([3]; 10×MIC for 1 h, range over 5 quinolone susceptible strains): 0.9 to 2.3 h
MIC50 [5]: 1 µg/mL (≈ 2.77 µM)
MIC Range [5]: 0.25 to 4.0 µg/mL

CC1(C)S[C@@H]2[C@H](NC(=O)Cc3ccccc3)C(=O)N2[C@H]1C(=O)O [Penicillin, penicillin G]
MIC50 [1, 6]: 0.25 µg/mL (≈ 0.748 µM)
MIC90 [1, 7]: 1 µg/mL (≈ 2.99 µM)
MIC [1, 6]: 0.125 to 1 µg/mL (≈ 0.374 to 2.99 µM)
MIC50 [1, 8]: 4 µg/mL (≈ 12 µM)
MIC90 [1, 9]: 4 µg/mL (≈ 12 µM)
MIC [1, 8]: 2 to 16 µg/mL (≈ 5.98 to 47.8 µM)
MIC50 [1, 10]: 0.016 µg/mL (≈ 0.0478 µM)
MIC90 [1, 11]: 0.03 µg/mL (≈ 0.0897 µM)
MIC [1, 10]: 0.008 to 0.06 µg/mL (≈ 0.0239 to 0.179 µM)
MIC [2, 12]: 0.06 µg/mL (≈ 0.179 µM)
MIC [2, 13]: 0.03 µg/mL (≈ 0.0897 µM)
MIC [2, 14]: 0.016 µg/mL (≈ 0.0478 µM)
MIC [2, 15]: 0.016 µg/mL (≈ 0.0478 µM)
MIC [2, 16]: 0.25 µg/mL (≈ 0.748 µM)
MIC [2, 17]: 0.25 µg/mL (≈ 0.748 µM)
MIC [2, 18]: 1 µg/mL (≈ 2.99 µM)
MIC [2, 19]: 0.5 µg/mL (≈ 1.5 µM)
MIC [2, 20]: 4 µg/mL (≈ 12 µM)
MIC ([2]; strain 10 (I)): 2 µg/mL (≈ 5.98 µM)
MIC [2, 21]: 4 µg/mL (≈ 12 µM)
MIC [2, 22]: 4 µg/mL (≈ 12 µM)
